Literature values as cited in paper PMC6791383, “A side-by-side evaluation of [^18F]FDOPA enantiomers for non-invasive detection of neuroendocrine tumors by positron emission tomography” (Oncotarget, 2019).

Test system: LAT1
Parameters: method as in PMID 21770378, PMID 11901210, PMID 25205473, PMID 30048132
Conditions: cited from earlier work

In the case of N[C@H](Cc1ccc(O)c(O)c1)C(=O)O [D-DOPA, 3,4-dihydroxy-D-phenylalanine], the IC50 is given as 46 ± 23 µM.
